No end group written: not given here.
Key:
[1] = tested on: Primary human melanocytes; test: Melanocyte proliferation rate; format: cell-based; details: up to 10 μM
Procedure: (§1) Primary human melanocytes were kindly obtained from Dr. Todd Ridky in the department of dermatology, Stanford University. Cells were cultured in Medium 254 (Cascade Biologics) supplemented with Human Melanocyte Growth Supplement (HMGS, Cascade Biologics). They were grown in a humidified atmosphere with 5% CO2 at 37° C. Cell plating densities were arranged that those cells were in log phase of growth for the duration of incubation with test samples. Subcultures of cells were plated at a density of 4×10^4 cells/cm^2. Approximately 24 h later, fresh medium and test samples were added. Cells were harvested 7 d after test samples addition, replaced with fresh medium and test samples every two days.
To exclude the possibility that the inhibitory effects of RA peptide on melanogenesis might be caused by the inhibition of cell growth, we compared the number of cells grown in the presence and absence of test samples.

[2] = tested on: Primary human melanocytes; format: cell-based; details: 24 h, 100 µM
Procedure: as §1
Cell viability was determined using WST-1 Cell Proliferation Kit (Roche). Cells were plated at 1×10^5/well (24-well plates). Twenty-four hours after plating, test samples were added and cultures were incubated for an additional 7 d. At the end of the treatment period, 50 μl WST-1 was added to each well. The plates were placed at 37° C. for 4 h in the dark and the absorbance at 450 nm was read using microplate. Usually, 3 replicate wells were measured for each group to be tested. Wells containing medium but no cells served as controls. Cell viability was calculated according to the equation: cell viability=absorbance (sample tested)/absorbance (medium only)×100%. Assay of Cellular Tyrosinase Activity […]

Human melanocytes = test: Melanin content measurement in melanocytes; format: cell-based; details: 10 μM (peptide: similar concentration), 7 days
Procedure: as §1
Human melanocytes were cultured in 6-well plates and treated with individual test samples for 7 d. After washes in PBS, cells were detached by short incubation in trypsin/EDTA (0.25%/0.1% in PBS). An aliquot was used for cell count. […] Melanin concentrations were calculated by comparison of the OD at 475 nm of unknown samples with a standard curve obtained with synthetic melanin.
To provide more direct evidence that RA peptide inhibits melanogenesis, its effects on melanin production in melanocytes was studied. The contents of melanin in melanocytes treated with no addition, RA peptide or HQ for 7 days were determined with a spectrophotometer and compared with a melanin standard curve. […]

tyrosinase = details: read-out: published IC50; cited from earlier work
[3] = target: T1, cellular tyrosinase activity of melanocytes (Homo sapiens, UniProt P14679); test: Assay of cellular tyrosinase activity with L-DOPA as substrate; format: cell-based; details: 7 d treatment
T1 construct: Primary human melanocytes were kindly obtained from Dr. Todd Ridky; endogenous in cells; host or cells: primary human melanocytes (passage 3)
T1 sequence (P14679 19-529): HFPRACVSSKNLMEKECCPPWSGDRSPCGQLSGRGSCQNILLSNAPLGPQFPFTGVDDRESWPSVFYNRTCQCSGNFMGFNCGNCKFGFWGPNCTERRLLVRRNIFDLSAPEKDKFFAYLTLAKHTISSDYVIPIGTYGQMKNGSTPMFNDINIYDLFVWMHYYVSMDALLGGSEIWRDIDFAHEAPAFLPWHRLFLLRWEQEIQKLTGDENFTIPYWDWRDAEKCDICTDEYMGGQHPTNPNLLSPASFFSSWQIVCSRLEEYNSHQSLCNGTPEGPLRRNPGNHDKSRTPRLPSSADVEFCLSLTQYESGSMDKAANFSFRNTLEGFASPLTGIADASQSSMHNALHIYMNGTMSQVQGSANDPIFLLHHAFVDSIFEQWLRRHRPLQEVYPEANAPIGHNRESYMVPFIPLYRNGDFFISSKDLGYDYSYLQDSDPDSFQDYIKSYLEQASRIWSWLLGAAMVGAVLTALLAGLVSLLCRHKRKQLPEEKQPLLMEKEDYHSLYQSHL
Procedure: as §1
Human melanocytes were cultured in 6-well plates. After treatment with individual test samples for 7 d, the cells were washed with phosphate-buffered saline (PBS) and lysed with phosphate buffer, pH 6.8, containing 1% Triton X-100. After sonication, lysates were clarified by centrifugation at 10000 g for 10 min. After determination of protein content with a Bio-Rad protein assay kit, lysates were added to 96 well culture plate containing equal amounts of protein (40 μg), and adjusted with lysis buffer to reach 150 μl in each well. 75 μl of 10 mM L-DOPA dissolved in lysis buffer was added to each well. The culture plate was incubated at 37° C. for 30 min, and then read with the spectrophotometer at 475 nm.
Tyrosinase inhibitory activity was calculated with the following formula: tyrosinase inhibition (%)=[1−(O.D.475 of sample/O.D.475 of control)]×100%.
We also examined the inhibitory action of RA peptide on cellular tyrosinase activity of melanocytes, using L-DOPA as substrate. After centrifugation and protein calculation, certain volume of supernatant for each sample was transferred to 96 well culture plate by compensating a certain protein content in each well, and adjusted the volume of each well to 150 μl with 0.067M of phosphate buffer (pH 6.8). 75 μl of 10 mM L-DOPA dissolved in phosphate buffer (pH 6.8) was added to each well. The culture plate was incubated at 37° C. for 30 min, and then read with the spectrophotometer at 475 nm.

Mushroom tyrosinase [4] = test: Tyrosinase inhibition at single concentration (melanin synthesis evaluation); format: biochemical; details: for considered effective in these assays: mushroom tyrosinase and B-16 assays, SF 8 mM, PLG 3 mM
Procedure: Peptides SF, VL, and PLG-OH were tested, along with controls of kojic acid, a known tyrosinase inhibitor, and licorice extracts, a known tyrosinase inhibitor (See J. Agric. Food Chem., 51 (5), 1201-1207, 2003). Tyrosinase inhibition was measured using mushroom tyrosinase (Sigma Aldrich cat # T3824) and L-tyrosine (Sigma Aldrich cat # T8566) in an assay buffer consisting of phosphate buffer (1.0M, pH 6.8) and 5%, and absolute water. The assay buffer, with test sample concentrations and tyrosinase, was incubated in the dark at room temperature for one hour and absorption was read.

Mushroom tyrosinase [5] = test: Mushroom tyrosinase inhibition, colorimetric detection of dopachrome (IC50, kinetics); format: biochemical; details: L-tyrosine substrate, pH 6.8, 37° C., absorbance 475 nm at 30 min
Procedure: Mushroom tyrosinase, L-tyrosine and other chemicals for the enzymatic reaction were obtained from Sigma-Aldrich. […] It is understood that research grade reagents were used for convenience, and it is preferred that the peptides be prepared to pharmaceutical grade purity, greater than 90%, preferably greater than 99% pure. Inhibition of tyrosinase by experimental peptides was determined by calorimetric detection of dopachrome, the reaction product of the substrate L-tyrosine. Mushroom tyrosinase, L-tyrosine, and a potassium phosphate buffer (pH 6.8) were added to 96-well plates containing short sequence peptides dissolved in 5% DMSO and incubated at 37° C. The absorbance at 475 nm was measured using a BIO-TEK plate reader 30 min after reaction initiation. Each experiment was performed in triplicate on 3 separate occasions. The protocol is described in further detail in Piao et al., “Mushroom Tyrosinase Inhibition Activity of Some Chromones,” Chem. Pharm. Bull. 56(3): 309-311 (2002), and in Pomerants, J. Biol. Chem 238:2351-2357 (1963). Enzyme kinetics were calculated using the Michaelis-Menton equation by observing changes in reaction velocity accompanying substrate concentrations of 0.5, 1, 2, and 4 mM L-tyrosine. Once initial reaction velocities were obtained, Lineweaver-Burke plots were created to calculate Km, Vmax, and to determine the mode of enzymatic inhibition.

[6] = tested on: B16-F10 mouse melanoma cells; test: Cell viability by MTT assay in B-16 pigmentation assay; format: cell-based
Procedure: (§2) The B-16 pigmentation assay used B16-F10 mouse melanoma cells (ATCC CRL-6475) grown in DMEM, DMEM without phenol red, FBS, antibiotics, L-glutamine and other standard components. Cells were counted in a Packard Spectracount (microplate spectrophotometer) filtered at 540 nm and 570 nm. The cells were cultured with growth medium and incubated for 24 hrs. at 37° C. and 10% CO2. Cells were treated with 200 μl of growth medium containing test active ingredient and incubated at 37° C. and 10% CO2. After 7 days, the cells were read at 540 nm using the Packard microplate reader. Cell viability was assessed using the MTT assay (Mosmann T. Rapid colorimetric assay for cellular growth and survival: application to proliferation and cytotoxicity assays. J Immunol Methods. 1983 Dec. 16; 65(1-2):55-63), which is used to determine the number of living cells in a sample.

[7] = tested on: facial pigmentation of patients with recalcitrant melasma; test: Clinical study in patients with recalcitrant melasma; format: in vivo, human; details: peptide in liposomes at 1%
Description: Patients with recalcitrant melasma (those that failed over the counter products, or HQ 4% for six months, or Tri-luma® Cream for six months) were randomized and blinded to two treatment groups (vehicle and peptide). Patients applied each product twice per day followed by a sunscreen with a sun protection factor of 30 Qam. Patients were then asked to rate the percentage improvement in their facial pigmentation using a nominal scale of 0-100, with 0 corresponding to no change and 100 corresponding to complete resolution. The results are shown in FIG. 3, in which the PLG-OH peptide is shown to be rated as 40-50% improvement, where vehicle caused no improvement. The peptide was formulated in liposomes at 1%, and the control was the liposomes alone.

[8] = Stability testing of 1% peptide solutions by HPLC/MS; details: 1% solution, sealed tube, ambient, HPLC or MS, 4 months
Procedure: A sixth peptide, VLLK (SEQ ID NO: 3), was used as inner standard for quantitative evaluation of other peptide stability.
HPLC/MS: A 1% solution was prepared for each peptide and sealed in a tube, which was kept in ambient environment. High Performance Liquid Chromatography (HPLC) and Mass Spectroscopy (MS) were tested periodically at an approximate time range of 30 days. A fresh 1% VLLK (SEQ ID NO: 3) solution used as inner standard was prepared on the same day of each test. The amount of each peptide was determined by its peak area relative to that of VLLK (SEQ ID NO: 3).

[9] = tested on: B16-F10 mouse melanoma cells; test: B-16 pigmentation assay; format: cell-based; details: concentration tested 8 mM, 7 days
Procedure: as §2

[10] = Solubility in tyrosinase assay buffer; format: physicochemical; details: 8 mM

Oc1ccc(O)cc1 [HQ, Hydroquinone]
inhibitory effects on melanocyte proliferation rates [1]: did not show inhibitory effects | cell death [2]: 100% | melanin content (Human melanocytes): slightly reduced | IC50 (tyrosinase): ~700 µM | reduction of cellular tyrosinase activity ([3]; 10 μM): 28.8%

O=c1cc(CO)occ1O [Kojic Acid, 5-hydroxy-2-(hydroxymethyl)-4-pyrone, reference compound]
% Tyrosinase inhibition (Mushroom tyrosinase [4]; concentration tested 0.25%): 94%

PLG-OH [tripeptide PLG with native amino and carboxy termini, distinguished from PLG-NH2]
IC50 (Mushroom tyrosinase [5]): 2.73 mM | cytotoxicity (printed in the % Depigmentation column) ([6]; concentration tested 3 mM): cyto-toxic | side effects (erythema, scaling, contact dermatitis reaction, comedone formation) ([7]; 4-month exposure): no side effects | percentage improvement in facial pigmentation ([7]; patient-rated scale 0-100, applied twice per day): 40-50% | % Tyrosinase inhibition (Mushroom tyrosinase [4]; concentration tested 3 mM): 6% | considered effective in these assays (Mushroom tyrosinase [4]): Neither SF peptide nor PLG was considered effective

RADSRADC [RA peptide, RADSRADC]
Viability ([6]; 150, 300 and 450 uM): not significantly affected | reduction of cellular tyrosinase activity ([3]; 1 μM): 1.2% | reduction of cellular tyrosinase activity ([3]; 10 μM): 15.6% | reduction of cellular tyrosinase activity ([3]; 100 μM): 21.1%

SFLLRN [SF peptide]
degradation [8]: did not show degradation | % Depigmentation (B-16 Assay) [9]: 0% | solubility in buffer [10]: ND (insoluble | considered effective in these assays (Mushroom tyrosinase [4]): Neither SF peptide nor PLG was considered effective

VLLK [VL peptide, reference compound]
IC50 (result in words) (Mushroom tyrosinase [5]): no effect
